We go through six molecules from publication PMC10322702 (Nature Chemistry, 2023).

pEC50, pIC50, pKd: −log10 of the molar value. Values joined by “and” are separate entries in the source; they are usually repeats but may differ in a detail not shown here. Equal values may be shown once. “Also recorded” adds a separate entry of the source. Numbered stars: 1 amine (or outer) side, 2 acyl side, 3 side chain; on linkers, the order of the positions; unused ones are H or OH. Bridge positions count the residues as written; N and C are the ends. Square brackets hold non-standard residues; d marks the D form. Peptide text beside a SMILES is read from it. Acbc(cis-1,3) = O=C([C@H]1C[C@@H](N[*:1])C1)[*:2]

Series [1] is described as follows: human serum (Cosmo Bio, 12181201). To be noted: 37 °C, up to 100 h.
The test system of series [2] is recombinant SARS-CoV-2 M^pro. Briefly: M^pro 6 mg ml^–1 in 20 mM HEPES (pH 7.5) and 50 mM NaCl, co-crystallization with GM4. The settings on record: SARS-CoV-2, room temperature, crystals grown at 20 °C, up to one week.
The subject of another series is Vero E6 cells. Details: method as in PMID 33786375. The settings on record: read-out: CC50 (half-maximal cytotoxic concentration); cited from earlier work.
The conditions of series [3]: read-out: EC50 (antiviral activity in cells); cited from earlier work.
A short description of series [4]: Antiviral activity in cells of GM4 and related macrocycles. The format is cell-based.
In series [5] the target is T1, SARS-CoV-2 M^pro (Severe acute respiratory syndrome coronavirus 2, UniProt P0DTD1). Briefly: biochemical. The format is biochemical.
Series [6] is described as follows: Cytotoxicity of GM4 and related macrocycles. Format: cell-based. The settings on record: at concentrations as high as 100 µM.
The nature of series [7]: Serum stability assay in human serum (LC/MS).
For series [8], the target named is T1, SARS-CoV-2 M^pro. Briefly: biochemical. The format is binding. To be noted: for kon: read-out: ka (kinetic association).
For another series, the target named is M^pro (Severe acute respiratory syndrome coronavirus 2, UniProt P0DTD1). Format: biochemical, SARS-CoV-2.
Setting [9] is: 37 °C, incubation time 1 h, relative to 0 h = 100%, technical replicates, 60 min.
[10] abbreviates: 37 °C, incubation time 4 h, relative to 0 h = 100%, technical replicates, 240 min.
The mark [11] stands for this setting: 37 °C, incubation time 8 h, relative to 0 h = 100%, technical replicates, 480 min.
Where [12] appears, read: 37 °C, incubation time 24 h, relative to 0 h = 100%, technical replicates, 1440 min.
[13] abbreviates: 37 °C, incubation time 50 h, relative to 0 h = 100%, technical replicates, 3000 min.
The mark [14] stands for this setting: 37 °C, incubation time 100 h, relative to 0 h = 100%, technical replicates, 6000 min.
The mark [15] stands for this setting: human, Remaining peptide (%), 37 °C, incubation time 1 h, relative to 0 h = 100%, technical replicates.
[16] abbreviates: human, Remaining peptide (%), 37 °C, incubation time 4 h, relative to 0 h = 100%, technical replicates.
[17] abbreviates: human, Remaining peptide (%), 37 °C, incubation time 8 h, relative to 0 h = 100%, technical replicates.
Setting [18] is: human, Remaining peptide (%), 37 °C, incubation time 24 h, relative to 0 h = 100%, technical replicates.
The mark [19] stands for this setting: human, Remaining peptide (%), 37 °C, incubation time 50 h, relative to 0 h = 100%, technical replicates.
[20] abbreviates: human, Remaining peptide (%), 37 °C, incubation time 100 h, relative to 0 h = 100%, technical replicates.

“^AcyFHγ^1LNLGYRPGc-NH2 ({CH2CO}-[dY]FH[Acbc(cis-1,3)]LNLGYRPG[dC]-NH2; thioether N-13)”: the cleaved bond result in series [1] is “L5-N6, 24 h; also recorded: N6-L7, 24 h; also recorded: R10-P11, 24 h; also recorded: P11-G12, 24 h; also recorded: G12-c13, 24 h”. For the same molecule, the not cleaved entry in series [2] is given as “complete intact peptide in the active site pocket”.

With `O=c1[nH]cc(-c2cc(-c3cc(Cl)c(F)c(OCc4ccccc4Cl)c3)c(=O)n(-c3cccnc3)c2)c(=O)[nH]1` [compound 23], the CC50 in the series with Vero E6 cells was 1150 nM.

In general, pEC50 refers to the EC50 on a negative log10 scale, so that one unit is a factor of ten. In the case of `Cn1cnc(Cn2c(=O)[nH]/c(=N\c3cc4cn(C)nc4cc3Cl)n(Cc3cc(F)c(F)cc3F)c2=O)n1` [S-217622], the pEC50 in [3] was 6.43.

By pIC50 is commonly meant the IC50 on a negative log10 scale, so that one unit is a factor of ten. By inhibition is commonly meant the relative decrease from the control value, in per cent. A high value points to a strong effect. The half-life is how long it takes for the measured level to halve. Low readings indicate fast loss, high ones slow loss. For the molecule `CC(C)C[C@@H]1NC(=O)[C@H](CC(N)=O)NC(=O)[C@H](CC(C)C)NC(=O)[C@H]2C[C@H](C2)NC(=O)[C@H](Cc2c[nH]cn2)NC(=O)[C@H](Cc2ccccc2)NC(=O)[C@@H](Cc2ccc(O)cc2)NC(=O)CSC[C@H](C(N)=O)NC(=O)CNC(=O)[C@@H]2CCCN2C(=O)[C@H](CCCNC(=N)N)NC(=O)[C@H](Cc2ccc(O)cc2)NC(=O)CNC1=O` [GM4] ({CH2CO}-[dY]FH[Acbc(cis-1,3)]LNLGYRPG[dC]-NH2; thioether N-13), the “antiviral activity in cells” value in series [4] is on record as “do not manifest obvious antiviral activity”. At SARS-CoV-2 M^pro [5], the pIC50 was 7.30, the inhibition at 0.102 µM came out at 84.7%, 0.309 µM produced 97.9% inhibition and testing at 0.933 µM gave an inhibition of 100%. Moreover, on SARS-CoV-2 M^pro [5], the inhibition at 2.75 µM was 100% and testing at 8.32 µM gave an inhibition of 100%. Besides, in series [6], the cytotoxicity result is recorded as “no cytotoxicity”. Besides, the “Remaining peptide (%)” value in series [7] (setting [9]) was 104.39% and 106.19%. For the same molecule, in [7] (setting [10]), the “Remaining peptide (%)” value was 95.61% and 97.60%. Moreover, in [7] (setting [11]), the “Remaining peptide (%)” value was 99.57% and 100.45%. For the same molecule, the “Remaining peptide (%)” value in series [7] (setting [12]) was 95.67% and 101.18%. Besides, the “Remaining peptide (%)” value in series [7] (setting [13]) is 76.05% and 78.63%. For the same molecule, the “Remaining peptide (%)” value in series [7] (setting [14]) was 55.56% and 56.89%. In addition, in series [7] (GM4 vs GM4γ^14A), the “fold increase in serum (proteolytic) stability compared to alanine-substituted variant” value is given as 12 fold. This molecule also gave a half-life at 10 μM in [7] (human) of 126 h. Moreover, the amount remaining at 1 h, 10 μM in [7] (setting [15]) was found to be 104%. Moreover, the share remaining at 4 h, 10 μM in series [7] (setting [16]) came to 95.7%. Moreover, the amount remaining at 8 h, 10 μM in series [7] (setting [17]) came out at 97.7%. For the same molecule, the fraction remaining at 24 h, 10 μM in series [7] (setting [18]) came out at 82.2%. Moreover, the amount remaining at 50 h, 10 μM in series [7] (setting [19]) was found to be 67.9%. Further, the amount remaining at 100 h, 10 μM in [7] (setting [20]) was determined as 55.7%. Besides, the kon at SARS-CoV-2 M^pro [8] is 100000 M⁻¹ s⁻¹. The “hydrolysis of the peptide by M^pro” value at M^pro is reported as “lack of efficient GM4 hydrolysis”.

The term pKd denotes the negative decadic logarithm of the Kd, by convention in mol/L. A higher pKd goes with a small Kd. At SARS-CoV-2 M^pro [5], `CC[C@H](C)[C@@H]1NC(=O)[C@H](Cc2ccc(O)cc2)NC(=O)[C@H](CC(C)C)NC(=O)[C@H](CC(=O)O)NC(=O)[C@H](CCCNC(=N)N)NC(=O)[C@H](Cc2ccccc2)NC(=O)[C@H](C)NC(=O)[C@H](Cc2c[nH]cn2)NC(=O)[C@H](Cc2ccccc2)NC(=O)[C@@H](Cc2ccc(O)cc2)NC(=O)CSC[C@H](C(N)=O)NC(=O)CNC(=O)[C@H](CC(C)C)NC1=O` [GM5γ^24A] ({CH2CO}-[dY]FHAFRDLYILG[dC]-NH2; thioether N-13) showed a pIC50 of 7.30, an inhibition at 1.86 µM of 100%, an inhibition at 5.62 µM of 100% and an inhibition at 16.6 µM of 100%. For the same molecule, at SARS-CoV-2 M^pro [5], the inhibition at 50.1 µM amounted to 100% and the inhibition at […] is 100%. The “Remaining peptide (%)” value in [7] (setting [9]) was 85.94% and 86.10%. In addition, the “Remaining peptide (%)” value in series [7] (37 °C, incubation time 2 h, relative to 0 h = 100%, technical replicates, 120 min) is 65.85% and 75.80%. The “Remaining peptide (%)” value in series [7] (setting [10]) was 83.58% and 80.89%. The “Remaining peptide (%)” value in [7] (setting [11]) is 69.62% and 72.73%. Moreover, the “Remaining peptide (%)” value in [7] (setting [12]) is 51.61% and 49.70%. The “Remaining peptide (%)” value in [7] (setting [13]) is 25.37% and 24.58%. In addition, in series [7] (setting [14]), the “Remaining peptide (%)” value was 8.38% and 8.41%. Also, the half-life at 10 μM in series [7] (human) was 21 h. In [7] (setting [15]), the fraction remaining at 1 h, 10 μM came out at 89.2%. Also, the fraction remaining at 2 h, 10 μM in series [7] (human, Remaining peptide (%), 37 °C, incubation time 2 h, relative to 0 h = 100%, technical replicates) was found to be 75.3%. For the same molecule, the fraction remaining at 4 h, 10 μM in series [7] (setting [16]) stood at 82.3%. Further, the fraction remaining at 8 h, 10 μM in series [7] (setting [17]) was 70.9%. Also, in series [7] (setting [18]), the amount remaining at 24 h, 10 μM worked out at 45.5%. Also, the share remaining at 50 h, 10 μM in series [7] (setting [19]) was determined as 23%. Moreover, the share remaining at 100 h, 10 μM in [7] (setting [20]) turned out to be 7.6%. At SARS-CoV-2 M^pro [8], the pKd was 7.21, the “kd (kinetic dissociation)” value is reported as 8.7 10^-3 s^-1 and the kon was determined as 140000 M⁻¹ s⁻¹.

For “^AcyFHA LNLGYRPGc-NH2 ({CH2CO}-[dY]FHALNLGYRPG[dC]-NH2; thioether N-13)”, the cleaved bond entry in [1] is recorded as “F2-H3, 24 h; also recorded: L5-N6, 24 h; also recorded: P11-G12, 24 h; also recorded: G12-c13, 24 h”.
